In US20200071361A1, “ENGINEERED ANTIMICROBIAL AMPHIPHILIC PEPTIDES AND METHODS OF USE” (priority 2017, published 2020):
Values after ≈ are worked out from the molar mass of the structure shown.

Assays:
Assay in all cases: Broth microdilution MIC, clinical isolate panel
[1] = test system: Enterococcus faecium isolates (n = 104); assay type: cell-based; conditions: Enterococcus faecium (n = 104)
Method: (§1) Comparator antibiotics were supplied by Micromyx, and stock solutions were prepared on the first day of testing using solvents recommended by CLSI (1). Stock solutions of all compounds were made at 40× the final testing concentration and stored at −80° C. prior to testing. Information regarding compound source, catalog and lot number, testing concentrations and drug diluent for the comparators and test agent are detailed below in Table 3.
(§2) The test organisms evaluated in this study consisted of clinical isolates from the Micromyx Repository and reference isolates from the American Type Culture Collection (ATCC; Manassas, Va.). The clinical isolates were obtained from USA hospitals. Upon initial receipt at Micromyx, the organisms were sub-cultured onto an appropriate agar medium. Following incubation, colonies were harvested from these plates and cell suspensions prepared and frozen at −80° C. with a cryoprotectant. Prior to testing, the isolates were streaked from frozen vials onto Trypticase Soy Agar with 5% sheep blood (Becton Dickenson [BD]; Sparks, Md.; Lot Nos. 7173618, 7166759, 7208688, 72144895, 7228505 and Remel Lenexa, Kans. Lot No. 212574). Plates were incubated at 35° C. overnight.
(§3) Mueller Hinton II broth (MHB II; BD; Lot Nos. 6258541 and 7143896) was used for MIC testing of aerobic organisms.
(§4) MIC values were determined using a broth microdilution procedure described by CLSI (1, 3). Automated liquid handlers (Multidrop 384, Labsystems, Helsinki, Finland; Biomek 2000 and Biomek FX, Beckman Coulter, Fullerton Calif.) were used to conduct serial dilutions and liquid transfers.
(§5) To prepare the drug mother plates, which would provide the serial drug dilutions for the replicate daughter plates, the wells of columns 2-12 of standard 96-well microdilution plates (Costar 3795) were filled with 150 μl of the designated diluent for each row of drug. The test articles and comparator compounds (300 μl at 40× the highest concentration to be tested) were dispensed into the appropriate wells in column 1. The Biomek 2000 was then used to make 2-fold serial dilutions in the mother plates from column 1 through column 11. The wells of Column 12 contained no drug and served as the organism growth control wells for the assay.
(§6) The daughter plates were loaded with 185 μL per well of MHB II using the Multidrop 384. The daughter plates were completed on the Biomek FX instrument which transferred 5 µL of drug solution from each well of a mother plate to the corresponding well of each daughter plate in a single step. A standardized inoculum of each test organism was prepared per CLSI methods (1). The inoculum for each organism was dispensed into sterile reservoirs divided by length (Beckman Coulter), and the Biomek 2000 was used to inoculate the plates. Daughter plates were placed on the Biomek 2000 work surface in reverse orientation so that inoculation took place from low to high drug concentration.
(§7) Plates were stacked 3-4 high, covered with a lid on the top plate, placed in plastic bags, and incubated at 35° C. for 16 to 20 hrs. Following incubation, the microplates were removed from the incubator and viewed from the bottom using a plate viewer. […] The MIC was read and recorded as the lowest concentration of drug that inhibited visible growth of the organism.
(§8) Clinical breakpoints to determine percent resistance within a given organism group were obtained from CLSI (3), with the exception of colistin for K. pneumoniae, Enterobacter spp., and E. coli, which are only available from EUCAST.

[2] = test system: Staphylococcus aureus isolates (n = 104); assay type: cell-based; conditions: Staphylococcus aureus (n = 104), all methicillin-resistant
Method: as §1, §2, §3, §4, §5, §6, §7, §8

[3] = test system: Acinetobacter spp. isolates (n = 104); assay type: cell-based; conditions: Acinetobacter spp. (n = 104)
Method: as §1, §2, §3, §4, §5, §6, §7, §8

[4] = test system: Escherichia coli isolates (n = 101); assay type: cell-based; conditions: Escherichia coli (n = 101)
Method: as §1, §2, §3, §4, §5, §6, §7, §8

[5] = test system: Klebsiella pneumoniae isolates (n = 101); assay type: cell-based; conditions: Klebsiella pneumoniae (n = 101)
Method: as §1, §2, §3, §4, §5, §6, §7, §8

[6] = test system: Pseudomonas aeruginosa isolates (n = 109); assay type: cell-based
Method: as §1, §2, §3, §4, §5, §6, §7, §8

[7] = test system: Enterobacter spp. isolates (n = 102); assay type: cell-based, Enterobacter aerogenes and E. cloacae; conditions: Enterobacter spp. (n = 102)
Method: as §1, §2, §3, §4, §5
The daughter plates were loaded with 185 μL per well of MHB II using the Multidrop 384. The daughter plates were completed on the Biomek FX instrument which transferred 5 µL of drug solution from each well of a mother plate to the corresponding well of each daughter plate in a single step. […]
Plates were stacked 3-4 high, covered with a lid on the top plate, placed in plastic bags, and incubated at 35° C. for 16 to 20 hrs. […] The MIC was read and recorded as the lowest concentration of drug that inhibited visible growth of the organism. […]

CCCCCCCCCC(=O)N[C@@H](Cc1c[nH]c2ccccc12)C(=O)N[C@H](CC(N)=O)C(=O)N[C@@H](CC(=O)O)C(=O)N[C@@H]1C(=O)NCC(=O)N[C@@H](CCCN)C(=O)N[C@@H](CC(=O)O)C(=O)N[C@H](C)C(=O)N[C@@H](CC(=O)O)C(=O)NCC(=O)N[C@H](CO)C(=O)N[C@@H]([C@H](C)CC(=O)O)C(=O)N[C@@H](CC(=O)c2ccccc2N)C(=O)O[C@@H]1C [Daptomycin]
MIC50 [1]: 4 µg/mL (≈ 2.47 µM) | MIC90 [1]: 8 µg/mL (≈ 4.94 µM) | MIC ([1]; read-out: Mode (MIC)): 2 µg/mL (≈ 1.23 µM) | MIC50 [2]: 0.5 µg/mL (≈ 0.309 µM) | MIC90 [2]: 1 µg/mL (≈ 0.617 µM) | MIC range [2]: 0.25 to 4 µg/mL | MIC ([2]; read-out: Mode (MIC)): 0.5 µg/mL (≈ 0.309 µM)

NC[C@H]1O[C@H](O[C@H]2[C@H](O)[C@@H](O[C@H]3O[C@H](CO)[C@@H](O)[C@H](N)[C@H]3O)[C@H](N)C[C@@H]2N)[C@H](N)C[C@@H]1O [Tobramycin]
% R (percent of isolates resistant, clinical breakpoints) [3]: 49.0% | MIC50 [3]: 8 µg/mL (≈ 17.1 µM) | MIC90 [3]: > 64 µg/mL | MIC ([3]; read-out: Mode (MIC)): > 64 µg/mL | MIC90 [4]: 32 µg/mL (≈ 68.4 µM) | % R (percent of isolates resistant, clinical breakpoints) [5]: over 60% | MIC50 [5]: 16 µg/mL (≈ 34.2 µM) | MIC90 [5]: 64 µg/mL (≈ 137 µM) | MIC ([5]; read-out: Mode (MIC)): 16 µg/mL (≈ 34.2 µM) | MIC90 ([6]; Pseudomonas aeruginosa): 4 µg/mL (≈ 8.56 µM) | % R (percent of isolates resistant, clinical breakpoints) ([6]; Pseudomonas aeruginosa (n = 109)): 7.4% | % R (percent of isolates resistant, clinical breakpoints) [7]: 3.9%
